Experimental data: patent publication US9700550B1, “Decreasing expression level of apoptosis-related genes by treating a human subject with a nitroxide” (priority 2016, dated 2017)

Key:
Assay type in all cases: in vivo
[1] = system: Trp53inp1 (mouse gene of Tp53inp1); assay: Gene expression in cardiac tissue of Tempol-fed mice, chip-based microarray
Protocol: (§1) To assess the effects of Tempol on gene expression, Tempol was administered to experimental mice at a dose of 5 mg/g of food from 14 months to 31 months after birth. Mice receiving the same food without the addition of Tempol were used as a negative control. At the age of 31 months, the experimental animals were sacrificed and the hearts were surgically removed. The expression of a broad spectrum of genes in the cardiac tissue was assessed using chip-based microarray technology. Such chips are well known in the art and are widely used to assess gene expression.

Casp12 = assay: as above
Protocol: as §1

Casp3 = assay: as above
Protocol: as §1

Pdcd5 = assay: as above
Protocol: as §1

Tradd = assay: as above
Protocol: as §1

Bak1 = assay: as above
Protocol: as §1

Casp2 = assay: as above
Protocol: as §1

[2] = system: Bak1, Pdcd5, Casp2, Tradd, Trp53inp1 (mouse gene of Tp53inp1), Casp3, or Casp12; assay: Serum level of apoptosis pathway genes in a human subject after Tempol treatment; settings: 1500 mg Tempol per day for 180 days
Protocol: (§2) A 70-kilogram human subject is identified for increased expression level of Bak1, Pdcd5, Casp2, Tradd, Trp53inp1 (mouse gene of Tp53inp1), Casp3, or Casp12. The human subject is administered a dose of 1500 mg of Tempol per day for 180 days. This may be administered in a single dose, or may be administered as a number of smaller doses over a 24-hour period: for example, three 500-mg doses at eight-hour intervals. Following treatment, the serum level of Bak1, Pdcd5, Casp2, Tradd, Trp53inp1 (mouse gene of Tp53inp1), Casp3, or Casp12, is reduced.
as §2, with “decreased immune response to a bacterial infection.” for “increased expression level of Bak1, Pdcd5, Casp2, Tradd, Trp53inp1 (mouse gene of Tp53inp1), Casp3, or Casp12.”
as §2, with “identified as at risk” for “identified”, “a psychiatric condition.” for “increased expression level of Bak1, Pdcd5, Casp2, Tradd, Trp53inp1 (mouse gene of Tp53inp1), Casp3, or Casp12.”
as §2, with “identified as risk” for “identified”, “stress-induced apoptosis.” for “increased expression level of Bak1, Pdcd5, Casp2, Tradd, Trp53inp1 (mouse gene of Tp53inp1), Casp3, or Casp12.”
(§3) A 70-kilogram human subject is identified as at risk for a disease associated with an increased level of apoptosis. The human subject is administered a dose of 1500 mg of Tempol per day for 180 days. This may be administered in a single dose, or may be administered as a number of smaller doses over a 24-hour period: for example, three 500-mg doses at eight-hour intervals. Following treatment, the serum level of Bak1, Pdcd5, Casp2, Tradd, Trp53inp1 (mouse gene of Tp53inp1), Casp3, or Casp12, is reduced.
as §2, with “identified as at risk of a disease having an” for “identified for”
as §3, with “of Parkinson's” for “for a”, “[…].” for “associated with an increased level of apoptosis.”

[3] = Tempol 5 mg/g of food vs control mice
[4] = Tempol-treated vs control mice, P-value 0.00
[5] = Tempol-treated vs control mice, P-value 0.03
[6] = Tempol-treated vs control mice, P-value 0.01

CC1(C)CC(O)CC(C)(C)N1[O] [Tempol, 4-hydroxy-2,2,6,6-tetramethylpiperidine-1-oxyl]
Trp53inp1 expression change, in words [1, 3]: statistically significant decrease in expression | Trp53inp1 fold change [1, 4]: −1.33 | Trp53inp1 expression, Tempol-treated mice ([1]; age 31 months, Tempol 5 mg/g of food from 14 to 31 months, control mice 1107): 830 | Casp12 expression change, in words (Casp12; [3]): statistically significant decrease in expression | Casp12 fold change (Casp12; Tempol-treated vs control mice, P-value 0.02): −1.61 | Casp12 expression, Tempol-treated mice (Casp12; age 31 months, Tempol 5 mg/g of food from 14 to 31 months, control mice 701): 436 | Casp3 expression change, in words (Casp3; [3]): statistically significant decrease in expression | Casp3 fold change (Casp3; [4]): −1.47 | Casp3 expression, Tempol-treated mice (Casp3; age 31 months, Tempol 5 mg/g of food from 14 to 31 months, control mice 604): 414 | Pdcd5 expression change, in words (Pdcd5; [3]): statistically significant decrease in expression | Pdcd5 fold change (Pdcd5; [5]): −1.15 | Pdcd5 expression, Tempol-treated mice (Pdcd5; age 31 months, Tempol 5 mg/g of food from 14 to 31 months, control mice 2863): 2503 | Tradd expression change, in words (Tradd; [3]): statistically significant decrease in expression | Tradd fold change (Tradd; [6]): −1.23 | Tradd expression, Tempol-treated mice (Tradd; age 31 months, Tempol 5 mg/g of food from 14 to 31 months, control mice 288): 233 | Bak1 expression change, in words (Bak1; [3]): statistically significant decrease in expression | Bak1 fold change (Bak1; [6]): −1.15 | Bak1 expression, Tempol-treated mice (Bak1; age 31 months, Tempol 5 mg/g of food from 14 to 31 months, control mice 260): 226 | Casp2 expression change, in words (Casp2; [3]): statistically significant decrease in expression | Casp2 fold change (Casp2; [5]): −1.20 | Casp2 expression, Tempol-treated mice (Casp2; age 31 months, Tempol 5 mg/g of food from 14 to 31 months, control mice 316): 261 | serum level of Bak1, Pdcd5, Casp2, Tradd, Trp53inp1, Casp3, or Casp12 following treatment ([2]; Example 2: 70-kilogram human subject with increased expression level of the gene): reduced | serum level of Bak1, Pdcd5, Casp2, Tradd, Trp53inp1, Casp3, or Casp12 following treatment ([2]; Example 3: 70-kilogram human subject with decreased immune response to a bacterial infection): reduced | serum level of Bak1, Pdcd5, Casp2, Tradd, Trp53inp1, Casp3, or Casp12 following treatment ([2]; Example 4: 70-kilogram human subject at risk for a psychiatric condition): reduced | serum level of Bak1, Pdcd5, Casp2, Tradd, Trp53inp1, Casp3, or Casp12 following treatment ([2]; Example 5: 70-kilogram human subject at risk for stress-induced apoptosis): reduced | serum level of Bak1, Pdcd5, Casp2, Tradd, Trp53inp1, Casp3, or Casp12 following treatment ([2]; Example 6: 70-kilogram human subject at risk for a disease associated with an increased level of apoptosis): reduced | serum level of Bak1, Pdcd5, Casp2, Tradd, Trp53inp1, Casp3, or Casp12 following treatment ([2]; Example 7: 70-kilogram human subject at risk of a disease having an increased expression level of the gene): reduced | serum level of Bak1, Pdcd5, Casp2, Tradd, Trp53inp1, Casp3, or Casp12 following treatment ([2]; Example 8: 70-kilogram human subject at risk of Parkinson's disease): reduced
